Numbers after ± are expanded uncertainties.
Assay: wn = mass fraction of the nth substance listed
Conditions: 101.3 kPa, Liquid, Vibrating tube method

Row | Compound | mass density (298.15 K, w1 = 0.2315) [kg/m3] | mass density (313.15 K, w1 = 0.2807) [kg/m3] | mass density (333.15 K, w1 = 0.3526) [kg/m3] | mass density (298.15 K, w1 = 0.0878) [kg/m3] | mass density (313.15 K, w1 = 0.1087) [kg/m3] | mass density (333.15 K, w1 = 0.1472) [kg/m3]
1 | NC(N)=O [urea] + OCCOCCO | 1160.9 ± 1.1 | 1174.2 ± 1.3 | 1184.5 ± 1.7 |  |  | 
2 | O=C(O)CCCCC(=O)O [1,6-hexanedioic acid] + OCCOCCO |  |  |  | 1171.8 ± 0.5 | 1175.7 ± 0.6 | 1188.2 ± 0.7

Source: the NIST ThermoML archive (doi:10.1016/j.fluid.2015.12.026)
